Laboratory results from patent publication US20230310464A1, “USE OF C[…] THE TREATMENT OF SEIZURES ASSOCIATED WITH RARE […] SYNDROMES RELATED TO BRAIN INJURY” (GW Research Limited, priority 2020, published 2023).
Entries after “also recorded” stand apart in the source; their conditions may differ.

Tested on: seizures associated with hypoxic ischaemic encephalopathy (HIE) or anoxia at birth
Experiment: Open label, expanded-access program: seizure frequency recorded by caregivers in a diary, relative to baseline
Type: in vivo, human
Set-up: reduction in tonic seizures over the treatment period / reduction in spasms over the treatment period / reduction in absence seizures over the treatment period / reduction in tonic-clonic seizures over the treatment period / reduction in myoclonic seizures over the treatment period: concentration or dose not given beside the values; Seizure frequency, Tonic / Seizure frequency, Spasm / Seizure frequency, Absence / Seizure frequency, Tonic-clonic / Seizure frequency, Focal with impairment / Seizure frequency, Atonic / Seizure frequency, Focal without impairment / Seizure frequency, Focal secondary generalisation / Seizure frequency, Myoclonic: unit not given here
Procedure: Subjects were required to be on one or more AEDs at stable doses for a minimum of two weeks prior to baseline and to have stable vagus nerve stimulation (VNS) settings and ketogenic diet ratios for a minimum of four weeks prior to baseline.
Dose was then increased weekly by 5 mg/kg/day to a goal of 20 to 25 mg/kg/day.
Modifications were made to concomitant AEDs as per clinical indication.
Seizure frequency, intensity, and duration were recorded by caregivers in a diary during a baseline period of at least 28 days. Changes in seizure frequency relative to baseline were calculated after at least 2 weeks and at defined timepoints of treatment.
Patients may be defined as responders if they had more than 50% reduction in seizure frequency compared to baseline. The percent change in seizure frequency was calculated as follows: […]
The percent change of seizure frequency may be calculated for any time interval where seizure number has been recorded. For the purpose of this example the percent change of seizure frequency for the end of the treatment period was calculated as follows: […]

[1] = Patient 4, 48 weeks, CBD 15.0 mg/kg/day
[2] = Patient 4, 60 weeks, CBD 20.0 mg/kg/day
[3] = Patient 4, treated for 60 weeks, vs baseline
[4] = Patient 5, 2 weeks, CBD 10.0 mg/kg/day
[5] = Patient 5, 4 weeks, CBD 20.0 mg/kg/day
[6] = Patient 5, 8 weeks, CBD 25.0 mg/kg/day
[7] = Patient 5, 12 weeks, CBD 25.0 mg/kg/day
[8] = Patient 5, 16 weeks, CBD 25.0 mg/kg/day
[9] = Patient 6, 2 weeks, CBD 10.0 mg/kg/day
[10] = Patient 6, treated for 2 weeks, vs baseline
[11] = Patient 7, 2 weeks, CBD 5.0 mg/kg/day
[12] = Patient 7, 4 weeks, CBD 10.0 mg/kg/day
[13] = Patient 7, 8 weeks, CBD 20.0 mg/kg/day
[14] = Patient 7, 12 weeks, CBD 25.0 mg/kg/day
[15] = Patient 9, 2 weeks, CBD 15.0 mg/kg/day
[16] = Patient 9, 4 weeks, CBD 20.0 mg/kg/day
[17] = Patient 9, 8 weeks, CBD 25.0 mg/kg/day
[18] = Patient 9, 12 weeks, CBD 25.0 mg/kg/day
[19] = Patient 9, 16 weeks, CBD 25.0 mg/kg/day
[20] = Patient 9, 24 weeks, CBD 25.0 mg/kg/day
[21] = Patient 9, 36 weeks, CBD 25.0 mg/kg/day
[22] = Patient 9, 48 weeks, CBD 25.0 mg/kg/day
[23] = Patient 9, 60 weeks, CBD 25.0 mg/kg/day
[24] = Patient 9, 72 weeks, CBD 25.0 mg/kg/day
[25] = Patient 9, 84 weeks, CBD 25.0 mg/kg/day
[26] = Patient 9, 108 weeks, CBD 25.0 mg/kg/day
[27] = Patient 9, 132 weeks, CBD 25.0 mg/kg/day

What does the source list for C=C(C)[C@@H]1CCC(C)=C[C@H]1c1c(O)cc(CCCCC)cc1O [CBD, cannabidiol]?
Seizure frequency, Tonic-clonic (Patient 4, 36 weeks, CBD 15.0 mg/kg/day): 0; Seizure frequency, Atonic [1]: 0; Seizure frequency, Tonic [1]: 0; Seizure frequency, Tonic-clonic [1]: 3.3; Seizure frequency, Atonic [2]: 4.0; Seizure frequency, Tonic [2]: 0; Seizure frequency, Tonic-clonic [2]: 19.3; reduction in tonic seizures over the treatment period [3]: 100%; reduction in tonic-clonic seizures over the treatment period [3]: 87.1%; Seizure frequency, Focal secondary generalisation [4]: 114.0; Seizure frequency, Focal without impairment [4]: 0; Seizure frequency, Focal secondary generalisation [5]: 106.0; Seizure frequency, Focal without impairment [5]: 2.0; Seizure frequency, Focal secondary generalisation [6]: 112.8; Seizure frequency, Focal without impairment [6]: 1.9; Seizure frequency, Focal secondary generalisation [7]: 111.0; Seizure frequency, Focal without impairment [7]: 2.1; Seizure frequency, Focal secondary generalisation [8]: 125.5; Seizure frequency, Focal without impairment [8]: 3.9; reduction in seizures over the treatment period (in words) (Patient 5, treated for 16 weeks): did not experience a reduction in seizures; Seizure frequency, Spasm [9]: 100.0; Seizure frequency, Tonic-clonic [9]: 10.0; reduction in spasms over the treatment period [10]: 53.9%; reduction in tonic-clonic seizures over the treatment period [10]: 28.6%; Seizure frequency, Focal with impairment [11]: 70.0; Seizure frequency, Myoclonic [11]: 58.0; Seizure frequency, Tonic-clonic [11]: 74.0; Seizure frequency, Focal with impairment [12]: 78.0; Seizure frequency, Myoclonic [12]: 18.0; Seizure frequency, Tonic-clonic [12]: 102.0; Seizure frequency, Focal with impairment [13]: 65.3; Seizure frequency, Myoclonic [13]: 65.3; Seizure frequency, Tonic-clonic [13]: 86.7; Seizure frequency, Focal with impairment [14]: 71.0; Seizure frequency, Myoclonic [14]: 7.0; Seizure frequency, Tonic-clonic [14]: 65.0; reduction in myoclonic seizures over the treatment period (Patient 7, treated for 12 weeks, vs baseline): 30%; Seizure frequency, Absence (Patient 8, 4 weeks, CBD 5.0 mg/kg/day): 5376.0; Seizure frequency, Absence (Patient 8, 8 weeks, CBD 5.0 mg/kg/day): 4803.0; Seizure frequency, Absence (Patient 8, 12 weeks, CBD 10.0 mg/kg/day): 3514.0; Seizure frequency, Absence (Patient 8, 24 weeks, CBD 15.0 mg/kg/day): 4284.0; Seizure frequency, Absence (Patient 8, 36 weeks, CBD 20.0 mg/kg/day): 2989.3; Seizure frequency, Absence (Patient 8, 48 weeks, CBD 25.0 mg/kg/day): 3360.0; Seizure frequency, Absence (Patient 8, 60 weeks, CBD 25.0 mg/kg/day): 3136.0; Seizure frequency, Absence (Patient 8, 72 weeks, CBD 25.0 mg/kg/day): 2968.0; Seizure frequency, Absence (Patient 8, 84 weeks, CBD 25.0 mg/kg/day): 2718.0; reduction in absence seizures over the treatment period (Patient 8, treated for 84 weeks, vs baseline): 64%; Seizure frequency, Myoclonic [15]: 2.0; Seizure frequency, Tonic [15]: 118.0; Seizure frequency, Myoclonic [16]: 1.0; Seizure frequency, Tonic [16]: 88.0; Seizure frequency, Myoclonic [17]: 0; Seizure frequency, Tonic [17]: 48.0; Seizure frequency, Myoclonic [18]: 0; Seizure frequency, Tonic [18]: 92.0; Seizure frequency, Myoclonic [19]: 0; Seizure frequency, Tonic [19]: 90.0; Seizure frequency, Myoclonic [20]: 0; Seizure frequency, Tonic [20]: 142.4; Seizure frequency, Myoclonic [21]: 0; Seizure frequency, Tonic [21]: 53.0; Seizure frequency, Myoclonic [22]: 0; Seizure frequency, Tonic [22]: 98.0; Seizure frequency, Myoclonic [23]: 0; Seizure frequency, Tonic [23]: 95.6; Seizure frequency, Myoclonic [24]: 0; Seizure frequency, Tonic [24]: 96.0; Seizure frequency, Myoclonic [25]: 0; Seizure frequency, Tonic [25]: 99.2; Seizure frequency, Myoclonic [26]: 0; Seizure frequency, Tonic [26]: 69.0; Seizure frequency, Myoclonic [27]: 0; Seizure frequency, Tonic [27]: 76.8; Seizure frequency, Absence (Patient 10, 4 weeks, CBD 5.0 mg/kg/day): 10.0; Seizure frequency, Absence (Patient 10, 12 weeks, CBD 10.0 mg/kg/day): 610.0; Seizure frequency, Absence (Patient 10, 24 weeks, CBD 15.0 mg/kg/day): 304.0; Seizure frequency, Absence (Patient 10, 36 weeks, CBD 20.0 mg/kg/day): 2184.6; Seizure frequency, Absence (Patient 10, 48 weeks, CBD 25.0 mg/kg/day): 1957.3; Seizure frequency, Absence (Patient 10, 60 weeks, CBD 25.0 mg/kg/day): 1520.3; Seizure frequency, Absence (Patient 10, 72 weeks, CBD 25.0 mg/kg/day): 1655.6; Seizure frequency, Absence (Patient 10, 84 weeks, CBD 25.0 mg/kg/day): 1626.6; Seizure frequency, Absence (Patient 10, 96 weeks, CBD 25.0 mg/kg/day): 1678.3; Seizure frequency, Absence (Patient 10, 120 weeks, CBD 25.0 mg/kg/day): 1644.5; Seizure frequency, Absence (Patient 10, 132 weeks, CBD 25.0 mg/kg/day): 1370.8; reduction in absence seizures over the treatment period (Patient 10, treated for 132 weeks, vs baseline): 54.3%; time of CBD treatment after which patient became seizure free of tonic seizures (patient #2): 36 weeks; time of CBD treatment after which patient became seizure free of tonic seizures (patient #4): 12 weeks; seizure freedom in patients with tonic seizures (in words) (patients 2 and 4, between 12 and 36 weeks of treatment): completely seizure free; effect on seizures / seizure frequency (in words) (tonic, tonic-clonic, atonic, myoclonic, absence, focal seizures with impairment and spasms, HIE or anoxia at birth): effective in reducing the frequency; also recorded: significantly reduce the number of seizures; also recorded: significant reduction
